Results reported in US20130153815A1, “POLYMER COMPRISING A DYE, NANOPARTICLE COMPRISING THE POLYMER, AND METHODS OF PREPARING THE SAME” (Agency for Science, Technology and Research, priority 2011, published 2013).

Columns and labels:
[1] = UV absorption in methanol; format: physicochemical; conditions: methanol solution, 0.1 mM, 25° C.
Experimental: (§1) The absorbance bands of these spectra still remain at 820 nm after chemical modification and hybridization with polymers. The colloidal stability and aggregation were tested by using UV absorbance. Dye-Pol 1 and Dye-Pol 2 were mixed with phosphate buffered saline (PBS) buffer. The absorbance bands remain the same after 3 days (FIG. 7). Similar phenomenon happened to MNP 1 and MNP 2 (FIG. 8). […] FIG. 9 and FIG. 10 show the emission spectra in the near-infrared region (800-1500 nm), excited at 785 nm. The emission spectrum of IR820dye-NH2 is 1002 nm, slightly blue-shifted from 1076 nm (IR-820). Dye-Pol 1 and Dye-Pol 2 show the emission highest peak at 956 nm while the emission of MNP 1 and MNP 2 are 864 and 866 nm, respectively. Dye-Pol 1 and Dye-Pol 2 absorb at 820 nm and emit at 956 nm. They display a large Stokes shift (136 nm).

[2] = NIR photoluminescence emission spectra excited with a 785 nm laser diode; format: physicochemical; conditions: near-infrared region (800-1500 nm), excited at 785 nm
Experimental: as §1

absorbance band [1]: 820 nm
emission highest peak [2]: 1076 nm
Structure (SMILES): CC1(C)C(=CC=C2CCCC(C=CC3=[N+](CCCCS(=O)(=O)[O-])c4ccc5ccccc5c4C3(C)C)=C2Cl)N(CCCCS(=O)(=O)[O-])c2ccc3ccccc3c21.[Na+] [IR-820]
